Data as given in patent US20220120736A1, “METHODS AND ASSAYS FOR MODULATING GENE TRANSCRIPTION BY MODULATING CONDENSATES” (Whitehead Institute for Biomedical Research, priority 2018, published 2022).

Key:
[1] = system: MED1 signal at the MYC locus in MCF7 cells; assay: Immunofluorescence for MED1 with DNA FISH at the MYC locus; type: cell-based, human; settings: MCF7 cells estrogen-deprived 3 days; 10 uM estradiol, or 10 uM estradiol and 5 uM 4-hydroxytamoxifen, 45 minutes
Experimental: Human tumor tissues sliced at 10 μm thickness or cells grown on Poly-L-Ornithine coated glass were washed once with PBS and fixed in 4% Paraformaldehyde, PFA, (VWR, BT140770) for 10 minutes. After three washes in PBS for 5 min, cells were stored at 4° C. or transferred to a humidifying chamber and processed for immunofluorescence. Permeabilization of cells was performed using 0.5% triton X100 (Sigma Aldrich, X100) in PBS for 10 minutes followed by three PBS washes. Cells were blocked with 4% IgG-free Bovine Serum Albumin, BSA, (VWR, 102643-516) for 30 minutes and the indicated primary antibody (ER ab32063, MED1 ab64965) was added at a concentration of 1:500 in 4% IgG-free Bovine Serum Albumin for 4-16 hours. […]
For analysis of RNA/DNA FISH with immunofluorescence, custom Python scripts were written to process and analyze 3D image data gathered in FISH and IF channels. […] These FISH foci were filtered by various criteria, including size (minimum 100 voxels), circularity of a max z-projection (circularity=4pi*area/perimeter^2; 0.7), and being present in a nucleus (determined by nuclear mask described above). […] The IF signal centered at FISH foci for each FISH and IF pair are then combined and an average intensity projection is calculated, providing averaged data for IF signal intensity within a l×l square centered at FISH foci. […]

MYC oncogene = assay: Confocal microscopy of MED1 condensates at MYC; type: cell-based; settings: presence versus absence of estrogen
[2] = system: ER LBD point mutant-MED1 condensate in U2OS-Lac cells; assay: LAC binding assay, ER LBD point mutants tethered to Lac array; type: cell-based; settings: ER mutants (Y537S, D538G)
Experimental: Constructs were assembled by NEB HIFI cloning in pSV2 mammalian expression vector containing an SV40 promoter driving expression of a CFP-LacI fusion protein. The activation domains and mutant activation domains of ESR1 were fused by the c-terminus to this recombinant protein, joined by the linker sequence […] (SEQ ID NO: 14). For some experiments a variant plasmid with mCherry in place of CFP was used. […] Cells were then plated on fibronectin-coated glass coverslips and transfected using lipofectamine 3000 (Thermofisher L3000015). For high MED1 conditions, a construct with a mammalian expression vector containing a PGK promoter driving the expression of MED1 fused to GFP was co-transfected. […]
For analysis of Lac array data, custom Python scripts were written to process and analyze image data gathered in Lac and tagged-protein channels. […] Segmented regions (also determined by measure.label) were then filtered based on minimum area (150 pixels), maximum area (2000 pixels), circularity (c=4pi*area/perimeter^2; 0.8), and presence in a nucleus as defined by the mask described above. A norm enrichment ratio was calculated by determining the mean intensity of the tagged-protein in the segmented Lac spot and dividing it by the mean intensity of the tagged-protein present in the same whole nucleus.

SMILES | MED1 signal at MYC [1] | MED1 condensate formation at the MYC oncogene (MYC oncogene) | MED1 condensate formation at tethered ER LBD, dependence on estrogen [2]
C[C@]12CC[C@@H]3c4ccc(O)cc4CC[C@H]3[C@@H]1CC[C@@H]2O [estrogen, B-Estradiol] | enhanced | stimulates MED1 condensate formation at the MYC oncogene | both in the presence and absence of estrogen
CC/C(=C(\c1ccccc1)c1ccc(OCCN(C)C)cc1)c1ccccc1 [tamoxifen] | reduced | – | –
